Nine substances from US10517889B2, “Modulators of SMAD7 expression” (Ionis Pharmaceuticals, Inc., priority 2017, dated 2019) can be followed below.

Values joined by “and” are separate entries in the source; they are usually repeats but may differ in a detail not shown here. Identical values can stand only once. Strand notation (5' to 3'): a small letter for the sugar, then the base; units joined by * are phosphorothioate-linked, units joined directly phosphodiester-linked; [ ] holds rarer units or linkages, { } end groups; capitals alone tell only the bases. k = constrained ethyl (cEt); [5mC] = 5-methylcytosine; d = 2'-deoxy (DNA)

For data set [1], the system named is human SMAD7 mRNA. The data set can be described thus: Antisense inhibition of human SMAD7 mRNA expression in Hep3B cells by 3-10-3 cEt gapmers, 10,000 nM, electroporation (Example 2). The format is cell-based. The conditions noted are these: approximately 24 hours. The gist of the method:
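Hep3B cells (20,000/well) were electroporated with 10,000 nM 3-10-3 cEt gapmer (16-mer, phosphorothioate, 5-methylcytosines) and harvested after about 24 h. SMAD7 mRNA quantified by RT-qPCR with primer probe set RTS5062, normalized to total RNA by RiboGreen; percent inhibition relative to untreated cells.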

Data set [2] concerns human SMAD7 mRNA. The experiment in a line: Dose-dependent inhibition of human SMAD7 mRNA expression in Hep3B cells (Example 3, Study 1 and 2). The format is cell-based. Conditions: electroporation; for % inhibition of SMAD7 mRNA expression: approximately 16 hours; for IC50: Study 2 (740-20000 nM). As to the method: The antisense oligonucleotides were tested in a series of experiments that had similar culture conditions as described below.
(§1) Cells were plated at a density of 20,000 cells per well and transfected using electroporation with 0.31 μM, 1.25 μM, 5.00 μM, or 20.00 μM concentrations of antisense oligonucleotide, as specified in the Tables below. ION 483663 was included in the assays for comparison. After a treatment period of approximately 16 hours, RNA was isolated from the cells and SMAD7 mRNA levels were measured by quantitative real-time PCR. Primer probe set RTS5062 was used to measure human SMAD7 mRNA levels. SMAD7 mRNA levels were adjusted according to total RNA content, as measured by RIBOGREEN®. Results are presented as percent inhibition of SMAD7 mRNA expression, relative to untreated control cells.
The half maximal inhibitory concentration (IC50) of each oligonucleotide is also presented.
as §1, with “0.74” for “0.31”, “2.22” for “1.25”, “6.67” for “5.00”, “below.” for “below. ION 483663 was included in the assays for comparison.”

The mark [3] stands for this setting: Hep3B cells, electroporation with 10,000 nM antisense oligonucleotide, primer probe set RTS5062, relative to untreated control cells.
Where [4] appears, read: 740 nM, Study 2, relative to untreated control cells.
Where [5] appears, read: SMAD7 mRNA, Hep3B cells, 10,000 nM antisense oligonucleotide, electroporation, primer probe set RTS5062, relative to untreated control cells.
The mark [6] stands for this setting: Hep3B cells, electroporation with 10,000 nM antisense oligonucleotide, RTS5062, percent inhibition of SMAD7 mRNA relative to untreated control cells.
Where [7] appears, read: Hep3B cells, electroporation, 10,000 nM antisense oligonucleotide, RTS5062, relative to untreated control cells.

One may read the % Inhibition as the change of the read-out against control, counted positive when it falls. A lower % Inhibition goes with little suppression. A word on the IC50: it is the concentration that inhibits the measured activity by half. As for “798954 (antisense kA*kT*kA*dA*dG*d[5mC]*dT*dA*dT*dT*dT*d[5mC]*dT*k[5mC]*kA*kA) [compound 798954]”, the “% Inhibition” value in the data set on human SMAD7 mRNA [1] (setting [3]) turned out to be 54%. The “% inhibition of SMAD7 mRNA expression” value in the data set on human SMAD7 mRNA [2] (setting [4]) is listed as 4%; in the data set with human SMAD7 mRNA [2] (2220 nM, Study 2), 27%; in the data set with human SMAD7 mRNA [2] (6670.0 nM, Study 2) it was 49%; with human SMAD7 mRNA [2] (20000.0 nM, Study 2) it was 70%. Also, the IC50 in the data set with human SMAD7 mRNA [2] was more than 20000 nM.
With “772578 (kG*kG*kT*dA*dT*d[5mC]*dT*dG*dG*dA*dG*dT*dA*kA*kG*kG; antisense) [compound 772578]”, in the data set with human SMAD7 mRNA [1] (setting [5]), the “% Inhibition” value was 63%. Also, the “% inhibition of SMAD7 mRNA expression” value is 54% in the data set on human SMAD7 mRNA [2] (setting [4]); 44% in the data set with human SMAD7 mRNA [2] (2220 nM, Study 2); 70% in the data set on human SMAD7 mRNA [2] (6670.0 nM, Study 2); 86% in the data set on human SMAD7 mRNA [2] (20000.0 nM, Study 2). Besides, the IC50 in the data set with human SMAD7 mRNA [2] was determined as 1000 nM.
Turning to “830157 (antisense kG*kA*kA*d[5mC]*dT*dG*dT*dG*d[5mC]*d[5mC]*dT*d[5mC]*dA*kG*k[5mC]*kA) [compound 830157]”, in the data set on human SMAD7 mRNA [1] (Hep3B cells, electroporation with 10,000 nM antisense oligonucleotide, SMAD7 mRNA by RT-PCR (RTS5062), relative to untreated control cells), the “% Inhibition” value is on record as 70%. For the same substance, the “% inhibition of SMAD7 mRNA expression” value in the data set with human SMAD7 mRNA [2] (setting [4]) is 24%; in the data set with human SMAD7 mRNA [2] (2220 nM, Study 2), 50%; in the data set with human SMAD7 mRNA [2] (6670.0 nM, Study 2), 73%; in the data set with human SMAD7 mRNA [2] (20000.0 nM, Study 2), 81%. This substance displayed an IC50 with human SMAD7 mRNA [2] of 3000 nM.
In the case of “790616 (k[5mC]*kT*kA*dA*dA*dT*dT*dT*d[5mC]*d[5mC]*dA*dA*dT*kG*kA*kG; antisense) [compound 790616]”, the “% Inhibition” value in the data set on human SMAD7 mRNA [1] (setting [5]) was determined as 66%. In addition, the “% inhibition of SMAD7 mRNA expression” value in the data set on human SMAD7 mRNA [2] (setting [4]) is given as 0%; in the data set on human SMAD7 mRNA [2] (2220 nM, Study 2), 8%; with human SMAD7 mRNA [2] (6670.0 nM, Study 2), 26%; with human SMAD7 mRNA [2] (20000.0 nM, Study 2), 65%. The substance further returned a half-inhibitory concentration (IC50) with human SMAD7 mRNA [2] of 13000 nM.
As for “799663 (antisense kG*k[5mC]*kA*d[5mC]*dA*dG*d[5mC]*d[5mC]*dA*dA*dG*dA*dG*kA*kT*kG) [compound 799663]”, the “% Inhibition” value with human SMAD7 mRNA [1] (setting [6]) was determined as 57%. In addition, the “% inhibition of SMAD7 mRNA expression” value with human SMAD7 mRNA [2] (setting [4]) turned out to be 19%; in the data set with human SMAD7 mRNA [2] (2220 nM, Study 2), 43%; in the data set with human SMAD7 mRNA [2] (6670.0 nM, Study 2) it was 61%; in the data set with human SMAD7 mRNA [2] (20000.0 nM, Study 2), 89%. Further, the IC50 with human SMAD7 mRNA [2] was more than 20000 nM.
With “799534 (kG*kA*kG*dA*dA*dT*dG*dA*dA*dG*dT*d[5mC]*d[5mC]*kA*kG*kA; antisense) [compound 799534]”, the “% inhibition of SMAD7 mRNA expression” value is on record as 68% in the data set on human SMAD7 mRNA [1] (setting [7]); 16% with human SMAD7 mRNA [2] (setting [4]); 60% with human SMAD7 mRNA [2] (2220 nM, Study 2); 51% in the data set on human SMAD7 mRNA [2] (6670.0 nM, Study 2); 86% with human SMAD7 mRNA [2] (20000.0 nM, Study 2). In the data set on human SMAD7 mRNA [2], this substance had an IC50 of 1000 nM.
For “798764 (kA*k[5mC]*kT*dT*dT*dG*d[5mC]*dA*d[5mC]*dA*dG*d[5mC]*dA*kG*kG*kA; antisense) [compound 798764]”, the “% inhibition of SMAD7 mRNA expression” value with human SMAD7 mRNA [1] (setting [3]) was 69%; with human SMAD7 mRNA [2] (6670.0 nM, Study 2) it was 57% and 72% and 54%; in the data set with human SMAD7 mRNA [2] (20000.0 nM, Study 2), 93% and 87% and 65% and 83%. In addition, the “% Inhibition” value in the data set on human SMAD7 mRNA [1] (setting [5]) was 75%. In the data set on human SMAD7 mRNA [2], this substance registered an IC50 of 1000 nM.
Regarding “799577 (kT*kT*k[5mC]*d[5mC]*dG*dA*dA*dA*dG*dG*dA*d[5mC]*d[5mC]*k[5mC]*kT*kT; antisense) [compound 799577]”, the “% inhibition of SMAD7 mRNA expression” value in the data set with human SMAD7 mRNA [1] (setting [7]) is listed as 55%; in the data set on human SMAD7 mRNA [2] (setting [4]), 35%; with human SMAD7 mRNA [2] (2220 nM, Study 2) it was 64%; in the data set with human SMAD7 mRNA [2] (6670.0 nM, Study 2), 75%; in the data set on human SMAD7 mRNA [2] (20000.0 nM, Study 2) it was 86%. Also, in the data set on human SMAD7 mRNA [2], 2000 nM corresponded to half-maximal inhibition (IC50).
With “799572 (kA*k[5mC]*k[5mC]*dA*dT*d[5mC]*dT*dA*dA*d[5mC]*dA*dA*d[5mC]*kA*kT*k[5mC]; antisense) [compound 799572]”, the results for the “% Inhibition” value in the data set on human SMAD7 mRNA [1] (setting [6]) and in the data set on human SMAD7 mRNA [1] (setting [5]) were 79% and 55%, respectively. The “% inhibition of SMAD7 mRNA expression” value turned out to be 0% in the data set on human SMAD7 mRNA [2] (setting [4]); 35% in the data set on human SMAD7 mRNA [2] (2220 nM, Study 2); 62% in the data set with human SMAD7 mRNA [2] (6670.0 nM, Study 2); 66% with human SMAD7 mRNA [2] (20000.0 nM, Study 2). The IC50 with human SMAD7 mRNA [2] was 1000 nM.
